In patent US20220281841A1, “ETHYNYLHETEROCYCLES AS RHO-ASSOCIATED COILED-COIL KINASE (ROCK) INHIBITORS” (Angion Biomedica Corp., priority 2019, published 2022):
Read-outs that look alike come from different tables or passages of the source.

Legend:
ROCK2 = target: T1, ROCK2 (Homo sapiens, UniProt O75116); test: ROCK2 kinase binding affinity, DiscoverX KINOMEscan KdELECT; conditions: for ROCK 2 Selectivity: ROCK2 over ROCK1, from Kd values, N/C = not calculated
T1 construct: purchased DiscoverX (KINOMEscan KdELECT service); host or cells: E. coli BL21-derived (T7 phage) or HEK-293
T1 sequence (O75116 whole entry): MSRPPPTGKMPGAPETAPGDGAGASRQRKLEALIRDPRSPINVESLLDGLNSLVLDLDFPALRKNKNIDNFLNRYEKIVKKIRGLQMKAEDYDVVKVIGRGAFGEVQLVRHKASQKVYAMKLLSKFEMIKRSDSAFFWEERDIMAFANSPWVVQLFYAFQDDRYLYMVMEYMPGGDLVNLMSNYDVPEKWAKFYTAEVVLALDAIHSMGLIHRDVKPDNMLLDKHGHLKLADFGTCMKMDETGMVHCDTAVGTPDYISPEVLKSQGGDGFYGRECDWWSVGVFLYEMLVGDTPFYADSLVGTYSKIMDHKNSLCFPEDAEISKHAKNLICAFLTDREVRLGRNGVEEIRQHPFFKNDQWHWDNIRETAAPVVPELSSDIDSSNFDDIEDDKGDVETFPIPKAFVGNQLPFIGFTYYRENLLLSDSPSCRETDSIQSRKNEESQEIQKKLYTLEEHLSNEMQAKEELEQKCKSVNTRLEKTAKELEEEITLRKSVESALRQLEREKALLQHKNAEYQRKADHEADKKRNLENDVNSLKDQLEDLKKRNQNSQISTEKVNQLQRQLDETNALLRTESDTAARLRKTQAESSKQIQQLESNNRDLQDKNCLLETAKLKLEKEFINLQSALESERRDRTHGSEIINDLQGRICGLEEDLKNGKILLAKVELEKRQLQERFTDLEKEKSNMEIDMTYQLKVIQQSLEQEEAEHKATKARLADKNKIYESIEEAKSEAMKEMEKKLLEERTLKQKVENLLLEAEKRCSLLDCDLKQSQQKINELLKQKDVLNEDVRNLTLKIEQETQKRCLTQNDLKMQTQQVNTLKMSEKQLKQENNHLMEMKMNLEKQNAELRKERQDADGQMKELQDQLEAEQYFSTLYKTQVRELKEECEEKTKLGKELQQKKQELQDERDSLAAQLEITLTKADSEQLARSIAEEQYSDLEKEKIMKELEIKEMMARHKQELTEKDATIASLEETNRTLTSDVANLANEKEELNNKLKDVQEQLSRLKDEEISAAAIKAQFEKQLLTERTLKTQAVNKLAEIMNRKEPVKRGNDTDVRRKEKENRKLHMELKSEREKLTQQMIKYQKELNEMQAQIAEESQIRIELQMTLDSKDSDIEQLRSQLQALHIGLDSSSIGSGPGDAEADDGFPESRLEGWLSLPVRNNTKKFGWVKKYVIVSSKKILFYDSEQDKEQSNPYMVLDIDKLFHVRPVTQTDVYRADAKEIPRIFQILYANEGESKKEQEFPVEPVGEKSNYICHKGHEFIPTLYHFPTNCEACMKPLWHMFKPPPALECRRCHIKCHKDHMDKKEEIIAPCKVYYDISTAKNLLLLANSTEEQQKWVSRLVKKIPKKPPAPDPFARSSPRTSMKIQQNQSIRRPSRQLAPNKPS
Procedure: (§1) 1. ROCK1 and ROCK2 kinase assays: The ROCK1 and ROCK2 kinase binding affinities of compounds in this invention were determined by DiscoverX's KINOMEscan™ KdELECT technology (https://www.discoverx.com/kinomescan-elect-kinase-screening-and-profiling-services): Kinase-tagged T7 phage strains were prepared in an E. coli host derived from the BL21 strain. E. coli were grown to log-phase and infected with T7 phage and incubated with shaking at 32° C. until lysis. The lysates were centrifuged and filtered to remove cell debris. The remaining kinases were produced in HEK-293 cells and subsequently tagged with DNA for qPCR detection. Streptavidin-coated magnetic beads were treated with biotinylated small molecule ligands for 30 minutes at room temperature to generate affinity resins for kinase assays. The liganded beads were blocked with excess biotin and washed with blocking buffer (SeaBlock (Pierce), 1% BSA, 0.05% Tween 20, 1 mM DTT) to remove unbound ligand and to reduce nonspecific binding. […] Test compounds were prepared as 111X stocks in 100% DMSO. Kds were determined using an 11-point 3-fold compound dilution series with three DMSO control points. […] The compounds were then diluted directly into the assays such that the final concentration of DMSO was 0.9%. All reactions performed in polypropylene 384-well plate. Each was a final volume of 0.02 ml. […] The kinase concentration in the eluates was measured by qPCR.

ROCK1 = target: T2, ROCK1 (Homo sapiens, UniProt Q13464); test: ROCK1 kinase binding affinity, DiscoverX KINOMEscan KdELECT; conditions: equilibrium dissociation constant, 11-point 3-fold dilution series
T2 construct: purchased DiscoverX (KINOMEscan KdELECT service); host or cells: E. coli BL21-derived (T7 phage) or HEK-293
T2 sequence (Q13464 whole entry): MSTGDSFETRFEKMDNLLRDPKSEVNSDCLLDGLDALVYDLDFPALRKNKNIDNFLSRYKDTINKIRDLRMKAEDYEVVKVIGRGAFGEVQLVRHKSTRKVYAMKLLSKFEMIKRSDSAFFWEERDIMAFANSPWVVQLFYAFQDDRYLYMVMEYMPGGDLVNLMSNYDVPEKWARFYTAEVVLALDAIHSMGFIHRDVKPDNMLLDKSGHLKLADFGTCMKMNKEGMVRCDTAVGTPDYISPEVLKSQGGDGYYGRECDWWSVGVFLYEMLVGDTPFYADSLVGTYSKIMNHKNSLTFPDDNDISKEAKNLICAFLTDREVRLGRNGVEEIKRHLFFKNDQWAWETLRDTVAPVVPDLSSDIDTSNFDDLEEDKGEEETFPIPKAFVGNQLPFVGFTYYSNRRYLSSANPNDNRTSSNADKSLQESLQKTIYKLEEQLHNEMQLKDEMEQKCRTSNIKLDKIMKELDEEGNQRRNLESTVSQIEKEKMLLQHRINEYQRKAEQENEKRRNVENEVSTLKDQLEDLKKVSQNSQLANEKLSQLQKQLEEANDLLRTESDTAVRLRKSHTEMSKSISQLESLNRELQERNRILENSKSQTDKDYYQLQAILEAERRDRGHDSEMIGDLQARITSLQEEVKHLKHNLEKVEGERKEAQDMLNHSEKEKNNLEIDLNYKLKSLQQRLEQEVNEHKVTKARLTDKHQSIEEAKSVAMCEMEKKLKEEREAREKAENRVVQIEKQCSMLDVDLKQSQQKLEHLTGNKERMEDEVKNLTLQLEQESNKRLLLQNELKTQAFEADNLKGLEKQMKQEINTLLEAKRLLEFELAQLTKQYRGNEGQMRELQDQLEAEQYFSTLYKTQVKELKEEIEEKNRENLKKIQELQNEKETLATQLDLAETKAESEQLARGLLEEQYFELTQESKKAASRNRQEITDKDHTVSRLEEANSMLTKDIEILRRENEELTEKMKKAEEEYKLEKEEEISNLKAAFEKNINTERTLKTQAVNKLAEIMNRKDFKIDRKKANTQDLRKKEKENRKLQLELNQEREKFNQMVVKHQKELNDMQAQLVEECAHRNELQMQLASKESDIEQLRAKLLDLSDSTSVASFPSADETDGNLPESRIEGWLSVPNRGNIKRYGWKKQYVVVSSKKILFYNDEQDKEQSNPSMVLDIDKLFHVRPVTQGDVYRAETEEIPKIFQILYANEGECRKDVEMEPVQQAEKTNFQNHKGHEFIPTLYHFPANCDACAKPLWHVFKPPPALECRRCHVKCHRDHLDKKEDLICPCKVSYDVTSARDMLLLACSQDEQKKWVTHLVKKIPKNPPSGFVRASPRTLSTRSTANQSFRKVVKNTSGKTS
Procedure: as §1

[1] = equilibrium dissociation constant, 11-point 3-fold dilution series, read-out: Kd (μM) ROCK2

Kd (ROCK2; [1]) | Kd (ROCK1) | SMILES | ROCK 2 Selectivity (ROCK2) | Kd (ROCK2)
> 30 µM | > 30 µM | COc1ccc2c(c1)CN(c1nccc(-c3nccc(C#Cc4ccncc4)n3)n1)C2 [Ex. 1, 5-Methoxy-2-(4-(pyridin-4-ylethynyl)-[2,4′-bipyrimidin]-2′-yl)isoindoline] | – | –
> 30 µM | > 30 µM | COc1ccc2c(c1)CN(c1nccc(-c3nccc(C#Cc4cn[nH]c4)n3)n1)C2 [Ex. 2, 2-(4-((1H-Pyrazol-4-yl)ethynyl)-[2,4′-bipyrimidin]-2′-yl)-5-methoxyisoindoline] | – | –
0.0069 µM | 0.82 µM | COc1ccc2c(c1)CN(c1nccc(-c3nccc(C#Cc4ccc5[nH]ncc5c4)n3)n1)C2 [Ex. 3, 5-((2′-(5-Methoxyisoindolin-2-yl)-[2,4′-bipyrimidin]-4-yl)ethynyl)-1H-indazole] | 119 | –
8.2 µM | > 30 µM | COc1ccc2c(c1)CN(c1nccc(-c3nccc(C#Cc4ccc5c(N)nccc5c4)n3)n1)C2 [Ex. 4, 6-((2′-(5-Methoxyisoindolin-2-yl)-[2,4′-bipyrimidin]-4-yl)ethynyl)isoquinolin-1-amine] | >3.66 | –
0.02 µM | > 30 µM | COc1ccc2c(c1)CN(c1nccc(-c3nccc(C#Cc4ccc5[nH]nc(F)c5c4)n3)n1)C2 [Ex. 5, 3-Fluoro-5-((2′-(5-methoxyisoindolin-2-yl)-[2,4′-bipyrimidin]-4-yl)ethynyl)-1H-indazole] | >1500 | –
> 30 µM | > 30 µM | COc1ccc2c(c1)CN(c1nccc(-c3nccc(C#Cc4ccc5c(c4)CNC5=O)n3)n1)C2 [Ex. 7, 5-((2′-(5-Methoxyisoindolin-2-yl)-[2,4′-bipyrimidin]-4-yl)ethynyl)isoindolin-1-one] | – | –
> 30 µM | > 30 µM | COC(=O)c1ccc(C#Cc2ccnc(-c3ccnc(N4Cc5ccc(OC)cc5C4)n3)n2)cc1 [Ex. 8, Methyl 4-((2′-(5-methoxyisoindolin-2-yl)-[2,4′-bipyrimidin]-4-yl)ethynyl)benzoate] | – | –
> 30 µM | > 30 µM | COc1ccc2c(c1)CN(c1nccc(-c3nccc(C#Cc4ccc(C#N)cc4)n3)n1)C2 [Ex. 9, 4-((2′-(5-Methoxyisoindolin-2-yl)-[2,4′-bipyrimidin]-4-yl)ethynyl)benzonitrile] | – | –
> 30 µM | > 30 µM | COc1ccc2c(c1)CN(c1nccc(-c3nccc(C#Cc4ccc(C(=O)O)cc4)n3)n1)C2 [Ex. 10, 4-((2′-(5-Methoxyisoindolin-2-yl)-[2,4′-bipyrimidin]-4-yl)ethynyl)benzoic acid] | – | –
> 30 µM | > 30 µM | CNC(=O)c1ccc(C#Cc2ccnc(-c3ccnc(N4Cc5ccc(OC)cc5C4)n3)n2)cc1 [Ex. 11, 4-((2′-(5-Methoxyisoindolin-2-yl)-[2,4′-bipyrimidin]-4-yl)ethynyl)-N-methylbenzamide] | – | –
0.26 µM | > 6 µM | Oc1cc2c(cn1)CN(c1nccc(-c3nccc(C#Cc4ccc5[nH]ncc5c4)n3)n1)C2 [Ex. 16, 2-(4-((1H-Indazol-5-yl)ethynyl)-[2,4′-bipyrimidin]-2′-yl)-2,3-dihydro-1H-pyrrolo[3,4-c]pyridin-6-ol] | >23 | –
0.049 µM | > 6 µM | Clc1cc2c(cn1)CN(c1nccc(-c3nccc(C#Cc4ccc5[nH]ncc5c4)n3)n1)C2 [Ex. 17, 5-((2′-(6-Chloro-1,3-dihydro-2H-pyrrolo[3,4-c]pyridin-2-yl)-[2,4′-bipyrimidin]-4-yl)ethynyl)-1H-indazole] | >122 | –
1.5 µM | > 30 µM | CN(C)CCOc1ccc2c(c1)CN(c1nccc(-c3cccc(C#Cc4ccc5[nH]ncc5c4)n3)n1)C2 [Ex. 22, 2-((2-(4-(6-((1H-Indazol-5-yl)ethynyl)pyridin-2-yl)pyrimidin-2-yl)isoindolin-5-yl)oxy)-N,N-dimethylethanamine] | >20 | –
0.66 µM | > 30 µM | CN1CCN(c2ccc3c(c2)CN(c2nccc(-c4cccc(C#Cc5ccc6[nH]ncc6c5)n4)n2)C3)CC1 [Ex. 23, 5-((6-(2-(5-(4-Methylpiperazin-1-yl)isoindolin-2-yl)pyrimidin-4-yl)pyridin-2-yl)ethynyl)-1H-indazole] | >45 | –
> 30 µM | > 30 µM | COc1ccc2c(c1)CN(c1nccc(-c3cc(F)cc(C#Cc4ccc5[nH]ncc5c4)c3)n1)C2 [Ex. 24, 5-((3-Fluoro-5-(2-(5-methoxyisoindolin-2-yl)pyrimidin-4-yl)phenyl)ethynyl)-1H-indazole] | – | –
> 30 µM | > 30 µM | Fc1cc(C#Cc2ccc3[nH]ncc3c2)cc(-c2ccnc(N3Cc4ccc(F)cc4C3)n2)c1 [Ex. 25, 5-((3-Fluoro-5-(2-(5-fluoroisoindolin-2-yl)pyrimidin-4-yl)phenyl)ethynyl)-1H-indazole] | – | –
4.5 µM | > 30 µM | Fc1cc(C#Cc2ccc3[nH]ncc3c2)cc(-c2ccnc(N3Cc4ccc(Cl)cc4C3)n2)c1 [Ex. 26, 5-((3-(2-(5-Chloroisoindolin-2-yl)pyrimidin-4-yl)-5-fluorophenyl)ethynyl)-1H-indazole] | >6.67 | –
> 30 µM | > 30 µM | Fc1cc(C#Cc2ccc3[nH]ncc3c2)cc(-c2ccnc(N3Cc4ccc(Br)cc4C3)n2)c1 [Ex. 27, 5-((3-(2-(5-Bromoisoindolin-2-yl)pyrimidin-4-yl)-5-fluorophenyl)ethynyl)-1H-indazole] | – | –
> 30 µM | > 30 µM | CN(C)CCOc1ccc2c(c1)CN(c1nccc(-c3cc(F)cc(C#Cc4ccc5[nH]ncc5c4)c3)n1)C2 [Ex. 28, 2-((2-(4-(3-((1H-Indazol-5-yl)ethynyl)-5-fluorophenyl)pyrimidin-2-yl)isoindolin-5-yl)oxy)-N,N-dimethylethanamine] | – | –
> 30 µM | > 30 µM | CN1CCN(c2ccc3c(c2)CN(c2nccc(-c4cc(F)cc(C#Cc5ccc6[nH]ncc6c5)c4)n2)C3)CC1 [Ex. 29, 5-((3-Fluoro-5-(2-(5-(4-methylpiperazin-1-yl)isoindolin-2-yl)pyrimidin-4-yl)phenyl)ethynyl)-1H-indazole] | – | –

SMILES | Kd (ROCK2; [1]) | Kd (ROCK1) | ROCK 2 Selectivity (ROCK2) | Kd (ROCK2)
COc1ccc2c(c1)CN(c1nccc(-c3nccc(C#Cc4cc(F)c5[nH]ncc5c4)n3)n1)C2 [Ex. 6, 7-Fluoro-5-((2′-(5-methoxyisoindolin-2-yl)-[2,4′-bipyrimidin]-4-yl)ethynyl)-1H-indazole] | 0.012 µM | 29 µM | 2417 | –
C(#Cc1ccnc(-c2ccnc(N3Cc4ccccc4C3)n2)n1)c1ccc2[nH]ncc2c1 [Ex. 12, 5-((2′-(Isoindolin-2-yl)-[2,4′-bipyrimidin]-4-yl)ethynyl)-1H-indazole] | 0.0018 µM | 0.25 µM | 139 | –
Fc1ccc2c(c1)CN(c1nccc(-c3nccc(C#Cc4ccc5[nH]ncc5c4)n3)n1)C2 [Ex. 13, 5-((2′-(5-Fluoroisoindolin-2-yl)-[2,4′-bipyrimidin]-4-yl)ethynyl)-1H-indazole] | 0.0079 µM | 9.2 µM | 1164 | –
Fc1ccc2c(c1)CN(c1nccc(-c3nccc(C#Cc4cc(F)c5[nH]ncc5c4)n3)n1)C2 [Ex. 14, 7-Fluoro-5-((2′-(5-fluoroisoindolin-2-yl)-[2,4′-bipyrimidin]-4-yl)ethynyl)-1H-indazole] | 0.028 µM | > 30 µM | >1071 | –
COc1cc2c(cn1)CN(c1nccc(-c3nccc(C#Cc4ccc5[nH]ncc5c4)n3)n1)C2 [Ex. 15, 5-((2′-(6-Methoxy-1,3-dihydro-2H-pyrrolo[3,4-c]pyridin-2-yl)-[2,4′-bipyrimidin]-4-yl)ethynyl)-1H-indazole] | 0.17 µM | > 6 µM | >35 | –
COc1ccc2c(c1)CN(c1nccc(-c3cccc(C#Cc4ccc5[nH]ncc5c4)n3)n1)C2 [Ex. 18, 5-((6-(2-(5-Methoxyisoindolin-2-yl)pyrimidin-4-yl)pyridin-2-yl)ethynyl)-1H-indazole] | 0.12 µM | 25 µM | – | –
COc1ccc2c(c1)CN(c1nccc(-c3cccc(C#Cc4cc(F)c5[nH]ncc5c4)n3)n1)C2 [Ex. 19, 7-Fluoro-5-((6-(2-(5-methoxyisoindolin-2-yl)pyrimidin-4-yl)pyridin-2-yl)ethynyl)-1H-indazole] | – | > 30 µM | >10.7 | 2.8 µM
Fc1ccc2c(c1)CN(c1nccc(-c3cccc(C#Cc4ccc5[nH]ncc5c4)n3)n1)C2 [Ex. 20, 5-((6-(2-(5-Fluoroisoindolin-2-yl)pyrimidin-4-yl)pyridin-2-yl)ethynyl)-1H-indazole] | 5.5 µM | > 30 µM | >5.4 | –
Fc1ccc2c(c1)CN(c1nccc(-c3cccc(C#Cc4cc(F)c5[nH]ncc5c4)n3)n1)C2 [Ex. 21, 7-Fluoro-5-((6-(2-(5-fluoroisoindolin-2-yl)pyrimidin-4-yl)pyridin-2-yl)ethynyl)-1H-indazole] | – | > 30 µM | >4.4 | 6.8 µM
